Experimental data as given in paper PMC2377083, “IDN 5390: an oral taxane candidate for protracted treatment schedules” (British Journal of Cancer, 2003).
Converted amounts (≈) assume the structure as drawn. “And” between values parts separate entries of the source, which are not always exact repeats. Equal values may be shown once. Read-outs that look alike come from different tables or passages of the source.

Legend:
tubulin = experiment: Tubulin polymerisation assay in IGROV-1/Pt1 cells; type: cell-based, human; details: 24 h
Description: For tubulin polymerisation assay, IGROV-1/Pt1 cells were treated with PTX or IDN 5390 at the indicated concentrations for 24 h. Cells were then processed as previously described ([Cassinelli et al, 2001]) in order to separate cellular fractions containing soluble cytosolic or polymerised cytoskeletal tubulin. Samples were electrophoresed by sodium dodecyl sulphate (SDS)–PAGE (10% resolving gel and 3% stacking gel) and blotted onto nitrocellulose membranes. The distribution of tubulin was analysed by immunoblotting, using a rabbit polyclonal antitubulin antibody (BioMakor, Revohot, Israel).

A2780/DDP cells = experiment: Antiproliferative activity, A2780/DDP; type: cell-based; details: Homo sapiens, 72 h treatment, cell counting, mean±s.d., three experiments
Description: (§1) Drugs were dissolved in DMSO and freshly diluted in medium before use. The antiproliferative activity was evaluated on A2780 (human ovarian carcinoma) and its derived drug-resistant cell lines (A2780/DX, A2780/DDP), IGROV-1/Pt1 (human ovarian carcinoma), GBM (human glioblastoma) and MX-1 (human mammary carcinoma). All cell lines, except MX-1, were maintained in RPMI 1640 (Bio-Whittaker, Verviers, Belgium) supplemented with 10% fetal calf serum (Life Technologies, Gaithersburg, MD, USA). MX-1 cells were maintained in McCoy's medium (Life Technologies, Gaithersburg, MD, USA) supplemented with 10% fetal calf serum. For experiments, all cell lines were seeded into six-well plates in duplicate and treated, 24 or 72 h (only MX-1 cells) after seeding, with solvent or different concentrations of taxanes. Adherent cells were counted 72 h after the beginning of treatment, by a cell counter (Coulter Electronics, Luton, UK) or detected by the Sulforhodamine B colorimetric assay (only GBM cells). The IC50 was defined as the drug concentration causing a 50% decrease in cell number over that of untreated controls.

VEGF = VEGF expression in GBM cells, immunoblotting; details: 72 h at IC80: IDN 5390 40, PTX 17 ng ml^−1
[1] = tested on: IGROV-1 PTX-resistant ovarian tumour xenograft; experiment: Antitumour activity on IGROV-1 xenograft; details: p.o., qd × 5/w × 3w, 120 mg kg^−1
Description: (§2) All the experiments were carried out using female athymic nude CD-1 mice, 8–11 weeks old (Charles River, Calco, Italy). The mice were maintained in laminar flow rooms with constant temperature and humidity.
(§3) Taxanes were dissolved by adding absolute ethanol and Cremophor ELP (both 5% of the final volume), in that sequence, on a magnetic stirrer. […] After dilution, the drug solutions were always kept on ice. […] (Milano, Italy) and, just before use, it was diluted, by slowly adding 0.9% NaCl and occasionally stirring the solution (final Polysorbate 80: 10%, v v^−1). […] When higher doses were to be given, larger volumes were injected.
(§4) Tumour lines were maintained in vivo by successive s.c. transplants of tumour fragments in animal flanks.
(§5) For chemotherapy experiments, tumour fragments (about 2 × 2 × 2 mm), obtained from tumour lines, were implanted s.c. Each control or drug-treated group included five or six mice bearing bilateral s.c. tumours. Tumours were implanted on day 0, and tumour growth was followed by biweekly measurements of tumour diameters with a vernier caliper. Tumour weight (TW) was calculated according to the formula: TW (mg)=tumour volume (mm^3)=d^2 × D/2, where d and D are the shortest and the longest diameter, respectively. Different treatment routes (i.v., s.c. or p.o.) and schedules (daily or intermittent) were investigated. […] Control mice were injected with the solvent solution.
(§6) Experimental groups were eliminated when mean TW was about 1.5±0.5 g, or after 100 days.
(§7) For statistical analysis, tumour weights in different groups of treated mice were compared on day of TWI% evaluation, by Student's t-test (two-tailed). P⩽0.05 was considered significant.
(§8) The tolerability of the compound was assessed in tumour-bearing mice as follows: (a) lethal toxicity, that is, any death in treated mice without or with small (⩽300 mg) tumours, or occurring before any control death; (b) body weight loss % (BWL%)=100–(BW on day x/BW on day 1 × 100), where x represents a day after or during the treatment period. The maximal BWL values are reported; and (c) vesicant toxicity defined as the appearance of ulcers and/or inflammation at the injection site where the drugs were delivered s.c.

[2] = tested on: MX-1 mammary tumour xenograft; details: for LCK (1 g) / Max BWL (%) / Tox/Tot / Max TWI%: qd × 4–5/w × 3w
[3] = tested on: MX-1 (human mammary carcinoma); experiment: Antiproliferative activity, MX-1; type: cell-based; details: 72 h treatment, cell counting, mean±s.d., three experiments
Description: as §1

bFGF = bFGF expression in GBM cells, immunoblotting; details: 72 h at IC80: IDN 5390 40, PTX 17 ng ml^−1
[4] = tested on: IGROV-1/Pt (human ovarian carcinoma); experiment: Antiproliferative activity, IGROV-1/Pt; type: cell-based
Description: as §1

[5] = mouse, in vivo
[6] = tested on: INT.ACP/PTX PTX-resistant ovarian tumour xenograft; experiment: Antitumour activity on INT.ACP/PTX xenograft; details: p.o.
Description: as §2, §3, §4, §5, §6, §7, §8

[7] = tested on: A2780/DDP ovarian tumour xenograft; experiment: Antitumour activity on A2780/DDP xenograft; details: for Tox/Tot: toxic deaths/total mice
Description: as §2, §3, §4, §5, §6, §7, §8

[8] = tested on: A2780 (human ovarian carcinoma); experiment: Antiproliferative activity, A2780; type: cell-based; details: 72 h treatment, cell counting, mean±s.d., three experiments
Description: as §1

[9] = 2 × 90 mg kg^−1 p.o., up to 5 weeks, 50 treatments
[10] = qd × 5/w × 2w, 2 × 120 mg kg^−1
[11] = s.c., qd × 5/w × 2w, 120 mg kg^−1

CC(=O)O[C@@]1([C@@H]2/C(C)=C(/O)C(=O)C3=C(C)[C@@H](OC(=O)[C@H](O)[C@H](CC(C)C)NC(=O)OC(C)(C)C)C[C@@](O)([C@H]2OC(=O)c2ccccc2)C3(C)C)CO[C@@H]1CCO [IDN 5390, 13-(N-Boc-β-isobutylisoserinyl)-10β-dehydro-C-seco-10-deacetylbaccatin III]
tubulin polymerisation (tubulin; equitoxic concentrations (IC80): IDN 5390 300, PTX 100 ng ml^−1): comparable extent of tubulin polymerisation | tubulin polymerisation (tubulin; same concentration (100 ng ml^−1), vs PTX): less effective than the parent drug | IC50 (A2780/DDP cells): 0.0318 ± 0.0055 µg/mL (≈ 0.0404 µM) | VEGF expression (VEGF): downregulated | LCK (1 g) [1]: 2.2 | Max BWL (%) [1]: 13% | TWI% (day 27) [1]: 73% | Tox/Tot [1]: 0/4 | antitumour efficacy ([2]; 30 mg kg^−1 p.o. twice a day, start when tumours averaged 100 mg): not very effective | tumours exhibiting CR at the end of the experiment ([2]; 2 × 90 mg kg^−1 p.o., 5 weeks, end of the experiment (100 days)): six out of 10 | lethal toxicity [2, 9]: no lethal toxicity | max BWL [2, 9]: 11% | LCK (1 g) ([2]; p.o., 120 mg kg^−1, from day 1): 1.1 | Max BWL (%) ([2]; p.o., 120 mg kg^−1, from day 1): 5% | Tox/Tot ([2]; p.o., 120 mg kg^−1, from day 1): 0/5 | Max TWI% ([2]; p.o., 120 mg kg^−1, from day 1, day 25): 82(25) % | TWI ([2]; s.c., all doses, after 3 weeks of treatment): > 80% | LCK (1 g) ([2]; s.c., 60 mg kg^−1, from day 1): 1.4 | Max BWL (%) ([2]; s.c., 60 mg kg^−1, from day 1): 3% | Tox/Tot ([2]; s.c., 60 mg kg^−1, from day 1): 0/3 | Max TWI% ([2]; s.c., 60 mg kg^−1, from day 1, day 29): 83(29) % | LCK (1 g) ([2]; s.c., 90 mg kg^−1, from day 1): 2.7 | Max BWL (%) ([2]; s.c., 90 mg kg^−1, from day 1): 3.5% | Tox/Tot ([2]; s.c., 90 mg kg^−1, from day 1): 0/5 | Max TWI% ([2]; s.c., 90 mg kg^−1, from day 1, day 29): 97(29) % | LCK (1 g) ([2]; s.c., 120 mg kg^−1, from day 1): 1.7–3.1 | Max BWL (%) ([2]; s.c., 120 mg kg^−1, from day 1): 6–7.5% | Tox/Tot ([2]; s.c., 120 mg kg^−1, from day 1): 1/10 | Max TWI% ([2]; s.c., 120 mg kg^−1, from day 1, day 25, P<0.05 vs p.o.): 93–96 ^*(25) % | IC50 [3]: 0.0345 ± 0.0078 µg/mL (≈ 0.0438 µM) | bFGF expression (bFGF): downregulated | IC50 ([4]; IGROV-1, 72 h treatment, cell counting, mean±s.d., three experiments): 0.0615 ± 0.0045 µg/mL (≈ 0.0781 µM) | IC80 ([4]; IGROV-1/Pt cells, read-out: IC80 (equitoxic concentration)): 0.3 µg/mL (≈ 0.381 µM) | neurotoxicity [5]: no symptoms of neurotoxicity were evident | LCK (1 g) ([6]; qd × 5/w × 2w, 180 mg kg^−1): 1.9 | Max BWL (%) ([6]; qd × 5/w × 2w, 180 mg kg^−1): 10% | Tox/Tot ([6]; qd × 5/w × 2w, 180 mg kg^−1): 2/5 | TWI% (day 27) ([6]; qd × 5/w × 2w, 180 mg kg^−1, P<0.05 vs 2 × 90 mg kg^−1): 96% and 96 ^* % | LCK (1 g) [6, 10]: 1.4 | Max BWL (%) [6, 10]: 15% | TWI% (day 27) [6, 10]: 87% | Tox/Tot [6, 10]: 1/5 | LCK (1 g) ([6]; qd × 5/w × 3w, 2 × 90 mg kg^−1): 0.8 | Max BWL (%) ([6]; qd × 5/w × 3w, 2 × 90 mg kg^−1): 9% | TWI% (day 27) ([6]; qd × 5/w × 3w, 2 × 90 mg kg^−1): 66% | Tox/Tot ([6]; qd × 5/w × 3w, 2 × 90 mg kg^−1): 0/6 | LCK (1 g) ([7]; i.v., q4d × 4, 90 mg kg^−1): 0.2 | Max BWL (%) ([7]; i.v., q4d × 4, 90 mg kg^−1): 0% | Max TWI% ([7]; i.v., q4d × 4, 90 mg kg^−1, day 18, start at tumour weight about 100 mg): 17 (18) % | Tox/Tot ([7]; i.v., q4d × 4, 90 mg kg^−1): 0/5 | LCK (1 g) ([7]; i.v., q4d × 4, 120 mg kg^−1): 0.3 | Max BWL (%) ([7]; i.v., q4d × 4, 120 mg kg^−1): 3% | Max TWI% ([7]; i.v., q4d × 4, 120 mg kg^−1, day 18): 46 (18) % | Tox/Tot ([7]; i.v., q4d × 4, 120 mg kg^−1): 0/5 | LCK (1 g) [7, 11]: 1.8 | Max BWL (%) [7, 11]: 2.5% | Max TWI% ([7]; s.c., qd × 5/w × 2w, 120 mg kg^−1, day 27): 92 (27) % | Tox/Tot [7, 11]: 0/5 | IC50 [8]: 0.023 ± 0.0004 µg/mL (≈ 0.0292 µM)
